Reference: patent EP1285918A1, “C7 Ester substituted taxanes as antitumor agents” (Florida State University Research Foundation, Inc., priority 2001, dated 2003)
Read-outs that look alike come from different tables or passages of the source.

What was measured:
[1] = test system: VM46 Human Colon Carcinoma Xenografts; details: for MDS (n): days until tumor reached 1.5 g
Protocol: (§1) Other antitumor compounds were similarly formulated. […] The dosing volume was 0.3 mL per 20 g mouse.
(§2) Female NCr-nude mice (6-8 weeks of age, implanted subcutaneously with 1 mm^3 VM46 colon carcinoma fragments in the flank) were sorted into treatment groups of six mice each. […] Dosing was initiated on Day 1. The antitumor compounds were given i.v. at an estimated maximum tolerated dose (MTD) appropriate for each agent on a qd x 1 schedule (single administration of compound). […] Taxotere was given i.v. at a dose of 70 mg/kg on a qd x 1 schedule. The vehicle was given i.v. to control mice in Group 1 in each test on Day 1 (qd x 1) schedule. Treatment groups are detailed in Table 13. The VM46 study ended on Day 64.
The results are summarized in table 14 and include mean days of survival (MDS), number of toxic deaths, number of survivors, number of complete or partial responses, and number with stable disease. The mean days of survival is the number of days after which a neoplasm reached a size of 1.5 g and the animal was euthanized. A complete response is obtained if the tumor is not palpable at the end of the study. A partial response is obtained if the tumor shrinks to a size smaller than its size on Day 1 of the study. […]

[2] = test system: DU 145 Human Prostate Carcinoma Xenografts; details: DU145; for Mean Score: tumor score 1 to 10, group mean
Protocol: (§3) Other antitumor compounds were similarly formulated. […] The dosing volume was 0.3 ml per 20 g mouse.
Male NCr-nude mice (implanted subcutaneously with 1 mm^3 DU145 prostate carcinoma fragments in the flank) were sorted into treatment groups of five mice each. […] Dosing was initiated on Day 1. The antitumor compounds were given i.v. at an estimated maximum tolerated dose (MTD) appropriate for each agent on a qd x 1 schedule (single administration of compound). […] The vehicle was administered i.v. to control mice in Group 1 on the qd x 1 schedule. The study was terminated on Day 91. Treatment groups are detailed in Table 5.
The mean days of survival is the number of days after which a neoplasm reached a size of 1.5 g and the animal was euthanized. A complete response is obtained if the tumor is not palpable at the end of the study. A partial response is obtained if the tumor shrinks to a size smaller than its size on Day 1 of the study. […]

[3] = test system: Panc-1 Human Pancreatic Carcinoma Xenografts
Protocol: as §1
as §2, with “Panc-1 pancreatic” for “VM46 colon”, “12.” for “13.”, “The” for “The VM46”, “was terminated” for “ended”, “63.” for “64.”
The mean days of survival is the number of days after which a neoplasm reached a size of 1.5 g and the animal was euthanized. A complete response is obtained if the tumor is not palpable at the end of the study. A partial response is obtained if the tumor shrinks to a size smaller than its size on Day 1 of the study.

[4] = test system: A375 Human Melanoma Xenografts; details: A375; for MDS (n) / Complete Response / Partial Response / Stable Disease / Survivors / Toxic Deaths / Mean Score: i.v. qd x 1 (mg/kg: Taxol 24, 1351 107.6, 1393 72.6, 1401 107.6, 1418 107.6, 1424 195.1, Taxotere 70); for MDS (n): 2.0 g cut-off; for MDS (n) / Complete Response / Partial Response / Stable Disease / Survivors / Toxic Deaths: Day 60; for Mean Score: tumor score 1 to 10, group mean; for survival extension compared to Group 1 controls: i.v. qd x 1 (mg/kg: Taxol 24, 1393 72.6, 1418 107.6, Taxotere 70)
Protocol: as §3
Female NCr-nude mice (implanted subcutaneously with 1 mm^3 A375 melanoma in the flank) were sorted into treatment groups of six mice each, except for the Taxotere group having seven mice each. […] Dosing was initiated on Day 1. The antitumor compounds were given i.v. at an estimated maximum tolerated dose (MTD) appropriate for each agent on a qd x 1 schedule (single administration of compound). […] Taxotere was given i.v. on a qd x 1 schedule at a dose of 70 mg/kg. The vehicle was administered i.v. to control mice in Group 1 on the qd x 1 schedule. Treatment groups are detailed in Table 9. The study was terminated on Day 60.
The results are summarized in Table 10 and include mean days of survival (MDS), number of toxic deaths, number of survivors, number of complete or partial responses, and number with stable disease. The mean days of survival is the number of days after which a tumor reached a size of 2.0 g and the animal was euthanized. A complete response is obtained if the tumor is not palpable at the end of the study. A partial response is obtained if the tumor shrinks to a size smaller than its size on Day 1 of the study. […]

[5] = 107.6 mg/kg i.v. qd x 1, 6 mice/group, study end Day 64
[6] = i.v. qd x 1 (mg/kg: Taxol 24, 1351 107.6, 1393 72.6, 1401 107.6, 1418 107.6, 1424 195.1), 5 mice/group, Day 91
[7] = i.v. qd x 1 (mg/kg: Taxol 24, 1351 107.6, 1393 72.6, 1401 107.6, 1418 107.6, 1424 195.1)
[8] = i.v. qd x 1 at estimated MTD, 6 mice/group, study end Day 63
[9] = 70 mg/kg i.v. qd x 1, 6 mice/group, study end Day 64

Structure (SMILES): CCC(=O)O[C@H]1C[C@H]2OC[C@@]2(OC(C)=O)[C@H]2[C@H](OC(=O)c3ccccc3)[C@]3(O)C[C@H](OC(=O)[C@H](O)[C@@H](NC(=O)OC(C)(C)C)c4ccoc4)C(C)=C([C@@H](O)C(=O)[C@]12C)C3(C)C [Compound 1401]
- Complete Response [1, 5]: 0
- Mean Score [1, 5]: 2.5 ± 1.3
- Partial Response [1, 5]: 1
- Stable Disease [1, 5]: 0
- Survivors [1, 5]: 1
- Toxic Deaths [1, 5]: 1
- MDS (n) [1, 5]: 46.1 ± 5.9 (4) days
- Toxic Deaths ([1]; VM46, i.v. qd x 1 at estimated MTD, 6 mice/group): not more than one
- maximal mean group weight losses ([1]; mouse, in vivo, iv): under 12%
- tolerability ([1]; mouse, in vivo, iv): Acceptable toxicity
- MDS (n) ([2]; i.v. qd x 1 (mg/kg: Taxol 24, 1351 107.6, 1393 72.6, 1401 107.6, 1418 107.6, 1424 195.1), 5 mice/group, 1.5 g cut-off, Day 91): 72.6 ± 8.7 (3) days
- Complete Response [2, 6]: 1
- Partial Response [2, 6]: 0
- Stable Disease [2, 6]: 0
- Survivors [2, 6]: 1
- Toxic Deaths [2, 6]: 1
- Mean Score [2, 7]: 3.6 ± 1.7
- Toxic Deaths ([3]; Panc-1, i.v. qd x 1 (mg/kg: Taxol 24, 1351 75.32, 1393 72.6, 1401 107.6, 1418 107.6, 1424 195.1), 6 mice/group): no toxic deaths
- Complete Response [3, 8]: 0
- Mean Score [3, 8]: 6.8 ± 0.8
- Partial Response [3, 8]: 3
- Stable Disease [3, 8]: 3
- Survivors [3, 8]: 6
- Toxic Deaths [3, 8]: 0
- mean group weight losses ([3]; mouse, in vivo, iv): 3-13%
- tolerability ([3]; mouse, in vivo, iv): well-tolerated
- MDS (n) [4]: 22.2 ± 1.1 (6) days
- Complete Response [4]: 0
- Partial Response [4]: 0
- Stable Disease [4]: 0
- Survivors [4]: 0
- Toxic Deaths [4]: 0
- Mean Score [4]: 2±0

Structure (SMILES): CCC(=O)O[C@H]1C[C@H]2OC[C@@]2(OC(C)=O)[C@H]2[C@H](OC(=O)c3ccccc3)[C@]3(O)C[C@H](OC(=O)[C@H](O)[C@@H](NC(=O)OC(C)(C)C)c4cccs4)C(C)=C([C@@H](O)C(=O)[C@]12C)C3(C)C [Compound 1418]
- Complete Response [1, 5]: 0
- Mean Score [1, 5]: 3.5 ± 0.8
- Partial Response [1, 5]: 0
- Stable Disease [1, 5]: 3
- Survivors [1, 5]: 3
- Toxic Deaths [1, 5]: 0
- MDS (n) [1, 5]: 41.7 ± 3.4 (3) days
- maximal mean group weight losses ([1]; mouse, in vivo, iv): 3-14%
- Complete Response [2, 6]: 1
- Partial Response [2, 6]: 2
- Stable Disease [2, 6]: 1
- Survivors [2, 6]: 4
- Toxic Deaths [2, 6]: 0
- Mean Score [2, 7]: 7.2 ± 1.2
- total response rate ([2]; i.v. qd x 1 at estimated MTD): ≥ 50%
- Partial Responses ([3]; Panc-1, i.v. qd x 1 (mg/kg: 1393 72.6, 1418 107.6), 6 mice/group, Day 63): 5
- Survivors [3, 8]: 6
- Toxic Deaths [3, 8]: 0
- Complete Response ([3]; iv, 1512 h): 0
- Mean Score ([3]; iv, 1512 h): 8 ± 0.6
- Partial Response ([3]; iv, 1512 h): 5
- Stable Disease ([3]; iv, 1512 h): 1
- mean group weight losses ([3]; mouse, in vivo, iv): 3-13%
- MDS (n) [4]: 34.5 ± 3.1 (3) days
- Complete Response [4]: 0
- Partial Response [4]: 1
- Survivors [4]: 2
- Mean Score [4]: 4 ± 1.3
- survival extension compared to Group 1 controls [4]: 140%

Structure (SMILES): CC(=O)O[C@@]12CO[C@@H]1C[C@H](O)[C@@]1(C)C(=O)[C@H](O)C3=C(C)[C@@H](OC(=O)[C@H](O)[C@@H](NC(=O)OC(C)(C)C)c4ccccc4)C[C@@](O)([C@@H](OC(=O)c4ccccc4)[C@H]21)C3(C)C [docetaxel, reference compound]
- Complete Response [1, 9]: 0
- Mean Score [1, 9]: 2 ± 0
- Partial Response [1, 9]: 0
- Stable Disease [1, 9]: 0
- Survivors [1, 9]: 0
- Toxic Deaths [1, 9]: 0
- MDS (n) [1, 9]: 45.3 ± 3.6 (6) days
- MDS ([1]; VM46, i.v. qd x 1 (Taxol 24 mg/kg, Taxotere 70 mg/kg), 6 mice/group, 1.5 g cut-off, Day 64): 45.3 days
- MDS (n) [4]: 21.5 ± 0.5 (7) days
- Complete Response [4]: 0
- Partial Response [4]: 0
- Stable Disease [4]: 0
- Survivors [4]: 0
- Toxic Deaths [4]: 0
- Mean Score [4]: 2±0
- survival extension compared to Group 1 controls [4]: 49%
